These are literature values, as cited in PMC2923042 (Journal of chemical information and modeling, 2008).

As usually defined, the IC50 is the concentration at which inhibition is half-maximal.

The data set deals with catL. The settings on record: extrapolated from 63% inhibition at 10^-7 M; ref Tsuge et al.[15].

`CN(C)C(=O)[C@H](Cc1ccccc1)NC(=O)[C@H]1O[C@@H]1C(=O)NCCc1ccccn1` [CLIK-148]: the IC50 was < 100 nM.
